# Source: US5399566A, “Pyridine derivatives having angiotensin II antagonism” (Meiji Seika Kabushiki Kaisha, priority 1990, dated 1995)
# Key:
# [1] = target: T1, contraction response to angiotensin II at the isolated thoracic aorta of rabbit (Oryctolagus cuniculus, UniProt P34976); experiment: In vitro angiotensin II antagonism, isolated rabbit thoracic aorta (Schild pA2); format: cell-based; conditions: Schild plot
# T1 construct: A strip of thoracic aorta of a male rabbit (2.5-3.0 kg) was prepared by the usual method; from tissue; host or cells: rabbit thoracic aorta strip
# T1 sequence (P34976 1-359): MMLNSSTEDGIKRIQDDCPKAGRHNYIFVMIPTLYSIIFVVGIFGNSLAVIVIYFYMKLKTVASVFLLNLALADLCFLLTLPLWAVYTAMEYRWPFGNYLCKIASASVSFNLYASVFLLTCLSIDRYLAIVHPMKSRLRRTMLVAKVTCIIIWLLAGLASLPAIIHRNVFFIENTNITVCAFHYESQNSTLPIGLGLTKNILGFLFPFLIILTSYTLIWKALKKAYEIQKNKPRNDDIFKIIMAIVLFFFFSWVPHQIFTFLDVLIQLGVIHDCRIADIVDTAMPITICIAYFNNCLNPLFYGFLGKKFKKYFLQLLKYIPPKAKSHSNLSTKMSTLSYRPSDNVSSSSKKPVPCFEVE
# Source text: (§1) The angiotensin II antagonistic activities in vitro were compared on the basis of the intensities (pA2 value) of antagonizing the contraction response to angiotensin II at the isolated thoracic aorta of rabbit. The in vivo activities were examined by comparing the inhibitory effects on the hypertensive action by an exogenous angiotensin II in a non-anesthetized rat and the hypotensive effects of a renal hypertensive rat or a spontaneously hypertensive rat.
# A strip of thoracic aorta of a male rabbit (2.5-3.0 kg) was prepared by the usual method and suspended in an organ bath containing well oxygenated Krebs-Henseleit solution at 37° C. The pA2 value was calculated according to the method described by H. O. Schild (British Journal of Pharmacology and Chemotherapeutics, 2, 189-206, 1947). A strip treated with 3-5 doses of a subject compound in an amount of 10^-6 M-10^-10 M and a strip treated with no drug were employed for obtaining a dose-response curve by angiotensin II. Log (dose ratio--1) was calculated from the shift of the dose-response curve of the subject compound, and pA2 value was obtained from the Schild plottings.
# [2] = test system: hypertensive action by angiotensin II; experiment: Inhibition on the hypertensive action by an exogenous angiotensin II in conscious rats; format: in vivo, Spraque-Dawley (SD) male rats; conditions: oral; for ED50: Rattus norvegicus, within 6 hours after administration, read-out: ED50 (dose required for inhibiting the hypertensive action by angiotensin II to the extent of 50%); for inhibitory effect on the hypertensive action by angiotensin II: angiotensin II 0.1 μg/kg i.v.
# Source text: as §1
# Anesthetized Spraque-Dawley (SD) male rats were cannulated into a femoral artery and a femoral vein and used for the experiment at the time when it has elapsed at least 24 hours after the operation. The hypertensive action caused by angiotensin II (0.1 μg/kg) which has been administered through the vein catheter was measured under conscious and unrestrained condition before and after administration of the compound. The artery catheter was connected to a pressure transducer to measure a mean blood pressure, and the subject compounds were orally administered in the form of a homogeneous suspension in a 0.5% aqueous carboxymethyl cellulose solution.
# The intensities of the inhibitory effects within 6 hours after administration of the compound were examined on the basis of the dose of the compound required for inhibiting the hypertensive action by angiotensin II to the extent of 50% (ED50 values).
# [3] = Toxicity test, oral, mice; conditions: mouse, in vivo, ddY male mice 5 weeks old
# Description: Several compounds of the present invention represented by the general formula (I) were administered orally by compulsion to ddY male mice of 5 weeks old (average weight, ca. 20 g).
# Fisher 344 male rats = experiment: Antianxiety effect, elevated plus maze; format: in vivo; conditions: diazepam 3 mg/kg
# Description: The subject compounds were examined on their antianxiety effect with the light and dark box according to the method described by B. Costall et al. (Pharmacology Biochemistry and Behavior, 32, 777-785, 1989) and with the elevated plus maze by S. Pell et al. (Journal of Neuroscience Methods, 14, 149-167, 1985).
# To Fisher 344 male rats (5-6 weeks old), the subject compounds were orally administered at a dose of 1-100 μg/kg in the form of a homogeneous suspension or solution in a 0.5% aqueous carboxymethyl cellulose solution. Among the four arms of the elevated plus maze (a device in which four arms are intersected crosswise and connected together at a height of 50 cm from the floor), the two arms with side walls are referred to as closed arms and the two arms without side walls are referred to as open arms. […] As the indices of the behavior, the latency until stepped out from the arm first placed to the other arm and the durations in the respective arms were measured, and the other behaviors were recorded. Diazepam was used as a control agent, and the drug administered group and the solvent administered group (group to which a 0.5% aqueous carboxymethyl cellulose solution was administered)were compared for the behaviors.
smiles,measurement,setting,value
"CCc1cc(OCc2ccc(-c3ccccc3-c3nnn[nH]3)cc2)cc(CC)n1 [Example 1, 2,6-Diethyl-4-[2'-(tetrazol-5-yl)biphenyl-4-yl]-methoxypyridine]",Kb,[1],5.25 nM
same,ED50,[2],0.6 mg/kg
same,inhibitory effect on the hypertensive action by angiotensin II,[2]; dose of 1 mg/kg or less,significant inhibitory effects
same,LD50,[3],> 1000 mg/kg
"CCc1cc(OCc2ccc(-c3ccccc3-c3nnn[nH]3)cc2)cc(C)n1 [Example 3, 2-ethyl-6-methyl-4-[2'-(tetrazol-5-yl)biphenyl-4-yl]-methoxypyridine]",Kb,[1],5.75 nM
same,ED50,[2],1.35 mg/kg
same,LD50,[3],> 1000 mg/kg
"CCOc1c(OCc2ccc(-c3ccccc3-c3nnn[nH]3)cc2)cc(C)nc1C [Example 12, 3-ethoxy-2,6-dimethyl-4-[2'-(tetrazol-5-yl)biphenyl-4-yl]methoxypyridine]",Kb,[1],1.74 nM
same,ED50,[2],0.56 mg/kg
same,inhibitory effect on the hypertensive action by angiotensin II,[2]; dose of 1 mg/kg or less,significant inhibitory effects
same,LD50,[3],> 1000 mg/kg
"CCc1nc(C)cc(OCc2ccc(-c3ccccc3-c3nnn[nH]3)cc2)c1OC [Example 16, 2-ethyl-3-methoxy-6-methyl-4-[2'-(tetrazol-5-yl)biphenyl-4-yl]methoxypyridine]",Kb,[1],0.912 nM
same,inhibitory effect on the hypertensive action by angiotensin II,[2]; dose of 1 mg/kg or less,significant inhibitory effects
"Cc1cc(OCc2ccc(-c3ccccc3-c3nnn[nH]3)cc2)c(OCc2ccccc2)c(C)n1 [Example 21, 3-benzyloxy-2,6-dimethyl-4-[2'-(tetrazol-5-yl)biphenyl-4yl]-methoxypyridine]",Kb,[1],6.76 nM
same,inhibitory effect on the hypertensive action by angiotensin II,[2]; 3 mg/kg,significant inhibitory effects
"CCOC(=O)c1c(OCc2ccc(-c3ccccc3-c3nnn[nH]3)cc2)cc(CC)nc1C [Example 44, 3-ethoxycarbonyl-6-ethyl-2-methyl-4-[2'-(tetrazol-5-yl)-biphenyl-4-yl]methoxypyridine]",Kb,[1],1 nM
same,inhibitory effect on the hypertensive action by angiotensin II,[2]; 3 mg/kg,significant inhibitory effects
"CCc1nc(C)cc(OCc2ccc(-c3ccccc3-c3nnn[nH]3)cc2)c1C(=O)OC [Example 46, 2-ethyl-3-methoxycarbonyl-6-methyl-4-[2'-(tetrazol-5-yl)-biphenyl-4-yl]methoxypyridine]",Kb,[1],0.617 nM
same,inhibitory effect on the hypertensive action by angiotensin II,[2]; dose of 1 mg/kg or less,significant inhibitory effects
"Cc1cc(OCc2ccc(-c3ccccc3-c3nnn[nH]3)cc2)c(C(=O)N(C)C)c(C)n1 [Example 53, 2,6-Dimethyl-3-(N,N-dimethylcarbamoyl)-4-[2'-(tetrazol-5-yl)bipbenyl-4-yl]methoxypyridine]",Kb,[1],3.02 nM
same,inhibitory effect on the hypertensive action by angiotensin II,[2]; 3 mg/kg,significant inhibitory effects
"Cc1cc(OCc2ccc(-c3ccccc3-c3nn[nH]n3)cc2)c(CO)c(C)n1 [Example 55, 3-Hydroxymethyl-2,6-dimethyl-4-[2'-(tetrazol-5-yl)biphenyl-4-yl]methoxypyridine]",Kb,[1],12.3 nM
"COCc1c(OCc2ccc(-c3ccccc3-c3nnn[nH]3)cc2)cc(C)nc1C [Example 57, 3-Methoxymethyl-2,6-dimethyl-4-[2'-(tetrazol-5-yl)-biphenyl-4-yl]methoxypyridine]",Kb,[1],6.17 nM
same,inhibitory effect on the hypertensive action by angiotensin II,[2]; 3 mg/kg,significant inhibitory effects
"CC(=O)OCc1c(OCc2ccc(-c3ccccc3-c3nnn[nH]3)cc2)cc(C)nc1C [Example 67, 3-Acetoxymethyl-2,6-dimethyl-4-[2'-(tetrazol-5-yl)-biphenyl-4-yl]methoxypyridine]",Kb,[1],0.129 nM
"Cc1cc(OCc2ccc(-c3ccccc3-c3nnn[nH]3)cc2)c(C=O)c(C)n1 [Example 68, 3-Formyl-2,6-dimethyl-4-[2'-(tetrazol-5-yl)biphenyl-4-yl]methoxypyridine]",Kb,[1],5.89 nM
"CCc1cc(OCc2ccc(-c3ccccc3C(=O)O)cc2)cc(CC)n1 [Example 81, 2,6-diethyl-4-(2'-carboxybiphenyl-4-yl)m ethoxypyridine]",Kb,[1],9.77 nM
same,inhibitory effect on the hypertensive action by angiotensin II,[2]; 3 mg/kg,significant inhibitory effects
"CCOc1c(OCc2ccc(-c3ccccc3C(=O)O)cc2)cc(C)nc1C [Example 83, 3-ethoxy-2,6-dimethyl-4-(2'-carboxybiphenyl-4yl)methoxypyridine]",Kb,[1],28.2 nM
same,ED50,[2],1.21 mg/kg
same,inhibitory effect on the hypertensive action by angiotensin II,[2]; dose of 1 mg/kg or less,significant inhibitory effects
same,LD50,[3],> 1000 mg/kg
CN1C(=O)CN=C(c2ccccc2)c2cc(Cl)ccc21 [diazepam],duration out of the closed arm,Fisher 344 male rats,increased
same,latency until stepped out from the arm first placed,Fisher 344 male rats,significantly decreased
same,transitions,Fisher 344 male rats,increased
